Measured values taken from patent publication US11738014B2, “Niraparib particles and uses thereof” (CRITITECH, INC., priority 2021, dated 2023).
Converted amounts (≈) assume the structure as drawn.

Assays:
[1] = Particle Size Distribution (PSD) by Laser Diffraction (Malvern Mastersizer 3000); type: physicochemical; details: dispersed in ethyl acetate
Procedure: Particle Size Distribution (PSD) by Laser Diffraction
Particle size analyses were conducted on a Malvern Mastersizer™ 3000 using the Hydro MV™ dispersion unit. A non-validated general PSD method/dispersant method was used to analyze the niraparib samples. The sample preparation procedure performed was as follows: Weigh 10 to 20 mg of niraparib into a 30-mL vial, add 20 mL of ethyl acetate. Disperse the sample by vortexing then sonicating the suspension in an ultrasonic bath for 1 minute. Then transfer the sample suspension to the Malvern Hydro MV™ dispersion unit to obtain obscuration between 5 and 15%.
PSD results from a Dv10 of 0.601 μ to a Dv90 of 12.9μ were obtained. […] Particle size distributions can be viewed in Table 1.

[2] = Specific Surface Area (SSA) determination by BET Sorptometry; type: physicochemical
Procedure: As used herein, the “specific surface area” is the total surface area of the niraparib particle per unit of niraparib mass as measured by the Brunauer-Emmett-Teller (“BET”) isotherm (i.e.: the BET SSA). As will be understood by those of skill in the art, the SSA is determined on a per gram basis and takes into account both agglomerated and non-agglomerated niraparib particles in the composition. The BET specific surface area test procedure is a compendial method included in both the United States Pharmacopeia and the European Pharmacopeia. The niraparib particles have a specific surface area (SSA) of at least 5 m^2/g. In various further embodiments, the niraparib particles have a SSA of at least 6 m^2/g, 7 m^2/g, 8 m^2/g, 9 m^2/g 10 m^2/g, 11 m^2/g, 12 m^2/g, 13 m^2/g, 14 m^2/g, 15 m^2/g, 16 m^2/g, 17 m^2/g, 18 m^2/g, 19 m^2/g, 20 m^2/g, 21 m^2/g, 22 m^2/g, 23 m^2/g, or 24 m^2/g.
Specific Surface Area (SSA) determination by BET Sorptometry
Surface area analyses were conducted on a Quantachrome NOVAtouch™ LX2 BET Sorptometer. Surface area results can be found in Table 1.

[3] = Bulk density analysis by modified USP <616> Bulk Density of Powders Method I (bulk and tapped density); type: physicochemical
Text: As used herein, the bulk density (not tapped) of a particle is the ratio of the mass to the volume (including the interparticulate void volume) of an untapped powder sample.
As used herein, the tapped density of a particle is obtained by mechanically tapping a graduated cylinder containing the sample until little further volume change is observed.
Bulk density analysis by modified USP <616> Bulk Density of Powders Method I

physchem = details: for solubility at 24 h: 20 °C, aqueous with cosolvent or surfactant or cyclodextrin, thermodynamic from solid
Procedure: The solubility was determined by using a shake-flask method. The drug was added in excess to each solution prepared in duplicate. The vials were placed on a mechanical shaker for 24 hours at 20-25° C. After shaking, solution was removed and filtered through a 0.45 μm PTFE syringe filter and analyzed by UV/Visible spectrophotometry.

Compound: NC(=O)c1cccc2cn(-c3ccc([C@@H]4CCCNC4)cc3)nc12 [Niraparib, (S)-2-(4-(piperidin-3-yl)phenyl)-2H-indazole-7-carboxamide]
- Dv-10 [1]: 33.2 μ
- Dv-50 [1]: 103 μ
- Dv-90 [1]: 267 μ
- Surface Area ([2]; BET sorptometer): 0.70 m^2/gm
- specific surface area measurement ([2]; material used in dissolution testing): 0.70 m^2/g
- Bulk Density ([3]; not tapped): 0.617 gm/cm^3
- Tapped Density ([3]; tapped): 0.741 gm/cm^3
- solubility at 24 h (physchem; 10% ethanol in water): 56.2 µg/mL (≈ 175 µM)
- solubility at 24 h (physchem; 10% methanol in water): 76.4 µg/mL (≈ 238 µM)
- solubility at 24 h (physchem; 25% ethanol in water): 332 µg/mL (≈ 1040 µM)
- solubility at 24 h (physchem; 25% methanol in water): 204 µg/mL (≈ 637 µM)
- solubility versus organic solvent concentration (physchem; methanol or ethanol, 10% and 25%): concentration dependent solubility
